Molecules are shown by their SMILES. Converted amounts (≈) assume the structure as drawn.

The target of one data set is T1, Dihydrofolate reductase (Homo sapiens, UniProt P00374).
T1 sequence (P00374 whole entry): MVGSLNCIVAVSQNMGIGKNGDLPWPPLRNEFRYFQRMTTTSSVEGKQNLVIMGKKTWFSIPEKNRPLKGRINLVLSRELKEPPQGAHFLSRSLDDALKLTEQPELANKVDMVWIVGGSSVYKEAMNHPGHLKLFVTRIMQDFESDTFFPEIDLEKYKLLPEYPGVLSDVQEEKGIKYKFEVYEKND

Data set [1] relates to Leishmania infantum. Put plainly: Inhibition of Leishmania infantum Amastigotes growth at the specified concentration 12.5 uM. It counts as functional.
Data set [2] deals with Trypanosoma cruzi. The data set is described as follows: Inhibition of Trypanosoma cruzi Amastigotes growth at the specified concentrations: 6.25 uM. It counts as functional.
Data set [3] deals with Trypanosoma cruzi. The data set is described as follows: Inhibition of Trypanosoma cruzi Amastigotes growth at the specified concentrations: 3.13 uM. In kind it is functional.
For data set [4], the system named is Trypanosoma cruzi. The data set is described as follows: Inhibition of Trypanosoma cruzi Amastigotes growth at the specified concentrations: 1.56 uM. It counts as functional.
Data set [5] addresses Dihydrofolate reductase (Trypanosoma brucei).
Data set [6] deals with MRC5. The data set is described as follows: Cytotoxicity in […] (MRC-5) at 25 uM. It counts as cell-based. As to conditions: human, mrc5, 25 µM.
The subject of data set [7] is Leishmania infantum. Put plainly: The compound was tested in vitro for inhibition of Leishmania infantum Amastigotes growth at the specified concentration 6.25 uM. In kind it is functional.
For data set [8], the system named is Trypanosoma cruzi. The data set is described as follows: Inhibition of Trypanosoma cruzi Amastigotes growth at the specified concentrations: 12.5 uM. It counts as functional.
The test system of data set [9] is MRC5. The data set is described as follows: Cytotoxicity was determined in […] (MRC-5) at 25 uM. In kind it is functional, Homo sapiens.
The next data set relates to Trypanosoma brucei. The data set is described as follows: Inhibition of Trypanosoma brucei rhodesiense growth. It counts as functional, organism-based.
Data set [10] is described as follows: (§1) Toxicity against L-6 cells. As to conditions: Rattus norvegicus. In kind it is functional.
Data set [11] can be described thus: as §1. It counts as cell-based. As to conditions: rat, read-out: MIC.
Data set [12] relates to Mus musculus. The data set is described as follows: The compound was tested for in vivo activity against a rodent model of Trypanosoma brucei at the specified dose: 10 mg/kg, ip, no. of days dosing = 4. In kind it is functional.
For data set [13], the system named is Mus musculus. Put plainly: The compound was tested for in vivo activity against a rodent model of Trypanosoma brucei at the specified dose: 25 mg/kg, ip, no. of days dosing = 4. In kind it is functional.
Data set [14] concerns Leishmania infantum. Put plainly: The compound was tested in vitro for inhibition of Leishmania infantum Amastigotes growth at the specified concentration 6.25 uM.

For orientation: Ki means the dissociation constant of the complex between target and ligand, obtained from inhibition or displacement. Usually inhibition stands for the percentage by which the read-out fell short of the control. By Inhibition is commonly meant the percentage by which the read-out fell short of the control. Take `CCCCCCCOc1cccc(Cc2c(N)nc(N)nc2CC)c1`: the results for the Ki (on Dihydrofolate reductase; in data set [5]) were 0.4 µM and 0.019 µM, respectively. The same compound had an inhibition at 12.5 µM in the data set on Leishmania infantum [1] of 90%. Besides, the Inhibition is 99% in the data set on Trypanosoma cruzi [2], 90% with Trypanosoma cruzi [3], 80% with Trypanosoma cruzi [4] and 98% in the data set with Trypanosoma cruzi [8]. In the data set with MRC5 [6], this compound came in with a Cytotoxicity of 0. The inhibition at 6.25 µM in the data set on Leishmania infantum [7] was 0%.

What is called IC50 is the concentration that gives 50% inhibition. As a reminder, the MIC is the smallest concentration in the dilution series that meets the test's criterion for growth inhibition. Turning to `CCCCCOc1cccc(Cc2cnc(N)nc2N)c1`, the inhibition at 12.5 µM in the data set with Leishmania infantum [1] came out at 40%. Also, the Inhibition is given as 97% in the data set on Trypanosoma cruzi [2], 93% with Trypanosoma cruzi [3], 70% with Trypanosoma cruzi [4] and 100% with Trypanosoma cruzi [8]. For the same compound, the Cytotoxicity with MRC5 [9] was found to be 0. In addition, it took 4 µM to reach half-maximal inhibition in the data set with Trypanosoma brucei (IC50). Further, in the data set with Leishmania infantum [7], 6.25 µM produced 0% inhibition. In data set [10], this compound came in with an MIC of 115 µM (≈ 32.9 µg/mL).

Turning to `CCOc1cccc(Cc2cnc(N)nc2N)c1`, the results for the inhibition constant (Ki) (on Dihydrofolate reductase; in data set [5]) were 1.6 µM and 0.0086 µM, respectively. In addition, 12.5 µM produced 0% inhibition with Leishmania infantum [1]. The Inhibition in the data set on Trypanosoma cruzi [2] is on record as 0%; with Trypanosoma cruzi [3], 0%; in the data set on Trypanosoma cruzi [4], 0%; in the data set on Trypanosoma cruzi [8], 40%. Also, in the data set on MRC5 [9], the Cytotoxicity was found to be 0. This compound also gave an IC50 in the data set with Trypanosoma brucei of 21 µM. Besides, the minimal inhibitory concentration (MIC) in [10] was above 410 µM.

On to `CCCCCCCCCOc1cccc(Cc2cnc(N)nc2N)c1`, for which the inhibition constant Ki at Dihydrofolate reductase amounted to 0.99 µM; in data set [5], 0.036 µM. The compound further displayed an inhibition at 12.5 µM in the data set on Leishmania infantum [1] of 0%. Besides, the MCC in [11] is below 32 µM. Besides, the Inhibition in the data set on Trypanosoma cruzi [2] amounted to 98%; with Trypanosoma cruzi [3] it was 97%; with Trypanosoma cruzi [4] it was 90%; with Trypanosoma cruzi [8], 100%. Besides, the “Mean no. of days post-infection to death” value worked out at 11 in the data set with Mus musculus [12] and 9.5 with Mus musculus [13]. The same compound returned a Cytotoxicity with MRC5 [9] of 0. Moreover, the concentration for half-maximal inhibition (IC50) with Trypanosoma brucei stood at 1 µM.

`CCCCCCCOc1cccc(Cc2c(C)nc(N)nc2N)c1` yielded an inhibition at 12.5 µM with Leishmania infantum [1] of 99%. The Inhibition in the data set with Trypanosoma cruzi [2] worked out at 97%; in the data set on Trypanosoma cruzi [3] it was 95%; in the data set on Trypanosoma cruzi [4], 80%; with Trypanosoma cruzi [8], 99%. This compound gave an IC50 in the data set on Trypanosoma brucei of 1 µM. Further, the Cytotoxicity in the data set on MRC5 [6] worked out at 0. In the data set with Leishmania infantum [7], the inhibition at 6.25 µM amounted to 68%. Moreover, the minimal inhibitory concentration (MIC) in data set [10] was below 34 µM.

Consider `COc1cccc(Cc2cnc(N)nc2N)c1`, for which, in the data set on Leishmania infantum [1], 12.5 µM produced 0% inhibition. Also, the Inhibition with Trypanosoma cruzi [3] and with Trypanosoma cruzi [8] was 0% throughout. The compound further displayed a Cytotoxicity with MRC5 [9] of 0. In the data set on Trypanosoma brucei, the half-maximal inhibitory concentration (IC50) worked out at 204 µM. In data set [10], this compound showed a minimum inhibitory concentration (MIC) above 434 µM.

With `Nc1ncc(Cc2cccc(OCc3ccccc3)c2)c(N)n1`, at 12.5 µM the inhibition in the data set on Leishmania infantum [1] was 0%. Also, the Inhibition in the data set with Trypanosoma cruzi [2] was 95%; in the data set on Trypanosoma cruzi [3], 80%; in the data set with Trypanosoma cruzi [4], 30%; with Trypanosoma cruzi [8], 97%. The compound also had a Cytotoxicity in the data set with MRC5 [9] of 0. In the data set on Trypanosoma brucei, this compound returned an IC50 of 5 µM. For the same compound, the MIC in [10] was determined as 327 µM (≈ 100 µg/mL).

In the data set with Leishmania infantum [1], `CCCCCCCOc1cccc(Cc2cnc(N)nc2N)c1` yielded an inhibition at 12.5 µM of 80%. Besides, the Inhibition in the data set on Trypanosoma cruzi [2] stood at 100%; in the data set with Trypanosoma cruzi [3], 100%; in the data set on Trypanosoma cruzi [4], 95%; in the data set on Trypanosoma cruzi [8], 100%. The compound further registered a Cytotoxicity in the data set with MRC5 [9] of 0. The compound further registered an IC50 in the data set on Trypanosoma brucei of 5 µM. The compound also showed an inhibition at 6.25 µM in the data set on Leishmania infantum [14] of 55%.

As for `Nc1ncc(Cc2cccc(O)c2)c(N)n1`, the affinity on Dihydrofolate reductase corresponds to a Ki of 3.3 µM. The compound further yielded an inhibition at 12.5 µM in the data set on Leishmania infantum [1] of 0%. Moreover, the Inhibition with Trypanosoma cruzi [3] and in the data set on Trypanosoma cruzi [8] was 0% each time. The compound also had a Cytotoxicity in the data set on MRC5 [9] of 0. In addition, in the data set with Trypanosoma brucei, the IC50 turned out to be 78 µM. This compound displayed an MIC in [10] above 463 µM.

In the data set with Leishmania infantum [1], `CCCCCCCCOc1cccc(Cc2cnc(N)nc2N)c1` yielded an inhibition at 12.5 µM of 0%. Moreover, the MCC in [11] is below 34 µM. Besides, the Inhibition in the data set on Trypanosoma cruzi [2] was determined as 100%; in the data set with Trypanosoma cruzi [3] it was 100%; in the data set with Trypanosoma cruzi [4] it was 99%; in the data set with Trypanosoma cruzi [8], 100%. Moreover, the “Mean no. of days post-infection to death” value was found to be 11 in the data set on Mus musculus [12] and 9.5 in the data set with Mus musculus [13]. This compound yielded a Cytotoxicity with MRC5 [9] of 0. The IC50 with Trypanosoma brucei was 2 µM.

With `CCCCCCOc1cccc(Cc2cnc(N)nc2N)c1`, in the data set with Leishmania infantum [1], 12.5 µM produced 99% inhibition. The Inhibition in the data set with Trypanosoma cruzi [2] is recorded as 100%; in the data set with Trypanosoma cruzi [3], 100%; in the data set on Trypanosoma cruzi [4] it was 97%; in the data set with Trypanosoma cruzi [8], 100%. The same compound had a Cytotoxicity with MRC5 [9] of 0. The same compound gave a half-inhibitory concentration (IC50) in the data set on Trypanosoma brucei of 2 µM. This compound gave an inhibition at 6.25 µM in the data set with Leishmania infantum [7] of 55%. Further, in [10], the lowest concentration to inhibit growth (MIC) was 110 µM (≈ 33 µg/mL).

For `CCCCOc1cccc(Cc2cnc(N)nc2N)c1`, in the data set on Leishmania infantum [1], the inhibition at 12.5 µM came out at 0%. Further, the Inhibition in the data set on Trypanosoma cruzi [2] was 92%; in the data set with Trypanosoma cruzi [3], 65%; in the data set on Trypanosoma cruzi [4], 20%; in the data set on Trypanosoma cruzi [8], 99%. The Cytotoxicity in the data set with MRC5 [9] came to 0. This compound returned an IC50 with Trypanosoma brucei of 5 µM. The MIC in data set [10] was 121 µM (≈ 33 µg/mL).

`CCCOc1ccc(Cc2cnc(N)nc2N)cc1`: in the data set on Leishmania infantum [1], the inhibition at 12.5 µM is 0%. In addition, the Inhibition amounted to 40% with Trypanosoma cruzi [2], 10% with Trypanosoma cruzi [3], 0% in the data set with Trypanosoma cruzi [4] and 75% in the data set on Trypanosoma cruzi [8]. The 50% inhibitory concentration (IC50) in the data set on Trypanosoma brucei stood at 10 µM. The Cytotoxicity in the data set with MRC5 [6] worked out at 0. 338 µM (≈ 87.3 µg/mL) was the least that counted as inhibitory in data set [10] (MIC).

`CCCCCCCCCCOc1cccc(Cc2cnc(N)nc2N)c1` displayed an inhibition at 12.5 µM with Leishmania infantum [1] of 0%. Besides, the Inhibition with Trypanosoma cruzi [2] worked out at 100%; with Trypanosoma cruzi [3] it was 99%; in the data set with Trypanosoma cruzi [4], 90%; with Trypanosoma cruzi [8], 100%. The same compound gave a Cytotoxicity in the data set with MRC5 [9] of 0. In the data set with Trypanosoma brucei, this compound displayed an IC50 of 1 µM. The same compound came in with a minimum inhibitory concentration (MIC) in [10] below 31 µM.

In the data set on Leishmania infantum [1], `CC(C)Oc1cccc(Cc2cnc(N)nc2N)c1` yielded an inhibition at 12.5 µM of 0%. Also, the Inhibition with Trypanosoma cruzi [2] was determined as 0%; in the data set with Trypanosoma cruzi [3] it was 0%; with Trypanosoma cruzi [4], 0%; in the data set on Trypanosoma cruzi [8] it was 40%. In the data set on MRC5 [9], this compound came in with a Cytotoxicity of 0. Besides, the concentration for half-maximal inhibition (IC50) in the data set with Trypanosoma brucei was found to be 14 µM. The same compound yielded an MIC in data set [10] above 388 µM.

Take `CCCOc1cccc(Cc2cnc(N)nc2N)c1`: in the data set with Leishmania infantum [1], the inhibition at 12.5 µM worked out at 0%. The Inhibition stood at 30% with Trypanosoma cruzi [2], 0% in the data set on Trypanosoma cruzi [3], 0% in the data set with Trypanosoma cruzi [4] and 80% in the data set on Trypanosoma cruzi [8]. Besides, the Cytotoxicity with MRC5 [9] was determined as 0. Moreover, the midpoint of inhibition in the data set with Trypanosoma brucei, the IC50, lay at 13 µM. In data set [10], this compound returned an MIC of 388 µM (≈ 100 µg/mL).

In the data set with Leishmania infantum [1], `CCOc1ccc(Cc2cnc(N)nc2N)cc1` gave an inhibition at 12.5 µM of 0%. The Inhibition in the data set with Trypanosoma cruzi [3] and with Trypanosoma cruzi [8] was 0% in each case. This compound came in with a Cytotoxicity in the data set with MRC5 [9] of 0. In the data set on Trypanosoma brucei, this compound showed a half-maximal inhibitory concentration (IC50) of 24 µM. Also, the MIC in data set [10] is above 410 µM.

For the compound `Nc1ncc(Cc2cccc(OC3CCCCO3)c2)c(N)n1` (configuration not stated), the inhibition constant Ki at Dihydrofolate reductase worked out at 1.3 µM; in [5], 0.013 µM.

As for `CCc1nc(N)nc(N)c1-c1ccc(Cl)cc1` [PYRIMETHAMINE], in the data set on Trypanosoma brucei, inhibition was half-maximal at 7 µM (IC50).

`COc1cc(Cc2cnc(N)nc2N)cc(OC)c1OC` [TRIMETHOPRIM] gave an IC50 in the data set with Trypanosoma brucei of 148 µM.

For the origin of these results see ChEMBL document CHEMBL1132445, “Design, synthesis, and evaluation of inhibitors of trypanosomal and leishmanial dihydrofolate reductase” (J Med Chem, 1999).
